# Values joined by “and” are separate entries in the source; they are usually repeats but may differ in a detail not shown here. Equal values may be shown once. “Also recorded” adds a separate entry of the source. Peptide text beside a SMILES is read from it. * marks the point of attachment. Cbz = O=C(OCc1ccccc1)*
# How the values were obtained:
# [1] = target: recombinant SIP1 (rSIP1) (UniProt O14893)
# [2] = target: recombinant SIP1 (rSIP1) (UniProt O14893); remark: listed apart in the source
# [3] = system: recombinant SIP1 (rSIP1); experiment: In vitro binding assay, nickel-column pull-down; details: 10 µg rSIP1 with 10 µg His-IN, 2 h, 4°C, nickel agarose, anti-SIP1 Western blot
# [4] = target: full-length His-tagged HIV-1 integrase Y15A (HIV-1 (pNL4-3)); experiment: not stated; data not shown; in vitro, recombinant IN-Y15A
# [5] = system: IN-V5; experiment: Expression level of IN-V5 in 293T cells by Western blotting
# [6] = system: IN-SIP1 interaction (His-IN, rSIP1); experiment: Dot-blot inhibition of IN-SIP1 interaction by peptide; format: binding, HIV-1
# [7] = system: rSIP1; experiment: Dot-blot binding of peptide to SIP1; details: 40 or 400 nmol peptide on nitrocellulose, rSIP1 (5 µg), anti-SIP1 antibody
# [8] = target: T1, IN-SIP1 mediated RT activity (Homo sapiens, UniProt O14893); experiment: In vitro RT assay, inhibition of IN-SIP1 mediated RT activity by peptide; format: biochemical, HIV-1; details: 35 fmol RT, 3.5 fmol His-IN, 50 fmol rSIP1; for Effect on IN-SIP1 mediated RT activity: cDNA relative to control
# T1 construct: the SIP1 gene was amplified from pTRE-SIP1 (kindly provided by Dr. G. Dreyfuss) by PCR and cloned into BamHI and EcoRI sites of pGEX-6P-2; GST (N, cleaved yes); made in house; host or cells: E. coli BL21 (GST-SIP1), E. coli M15 (His-IN)
# T1 sequence (O14893 1-280): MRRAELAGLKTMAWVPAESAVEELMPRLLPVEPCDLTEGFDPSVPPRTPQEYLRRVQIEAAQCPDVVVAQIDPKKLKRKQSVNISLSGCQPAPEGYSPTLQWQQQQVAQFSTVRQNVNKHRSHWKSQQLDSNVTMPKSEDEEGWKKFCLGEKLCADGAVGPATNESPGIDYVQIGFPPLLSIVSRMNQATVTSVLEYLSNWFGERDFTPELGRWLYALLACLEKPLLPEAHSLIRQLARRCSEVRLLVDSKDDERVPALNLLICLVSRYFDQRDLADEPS
# [9] = system: HIVNL43-luc/VSV-G pseudotypes; format: cell-based, HIV-1
# [10] = target: wild type HIV-1 integrase with V5 epitope (IN-V5, WT-V5) (HIV-1 (pNL4-3)); experiment: cross-linking
# [11] = system: RT; experiment: Direct binding to RT; design: species or system HIV-1; details: data not shown
# [12] = system: HIV-1 RT (GST-RTp66); experiment: In vitro RT assay, stimulation by IN and SIP1; format: biochemical
# Protocol: (§1) Figure 4 Augmentation of reverse transcription by HIV-1 IN and SIP1 in vitro. (A, B) The in vitro RT assay was carried out with 35 fmoles of HIV-1 RT (GST-RTp66) in the absence or presence of different amounts of full-length rIN (WT-IN). The truncated form of IN (IN1–70) that lack SIP1 binding domains was also tested in apparel as a control. The amount of HIV-1 cDNA was measured by real-time PCR using the HIV-1 R/U5 (A) or R/gag (B) primer pair. Significant augmentation (p<0.05) by WT-IN in the levels of HIV-1 cDNA compared with the level without IN (0 fmole) was indicated by asterisks. (C) The in vitro RT assay was carried out as described in (A) in either the absence or presence of […] of WT-IN, together with different amounts of rSIP1. (D) The in vitro RT assay was carried out with 3.5 fmoles of WT-IN (black bar) or IN1–70 (slash bar), in either the absence (−) or presence (+) of 50 fmoles of rSIP1. (E) The oligo(dT) cellulose resin was incubated with in vitro transcribed HIV-1 RNA for 1 h. After incubation, 10 µg of GST-RT in either the absence or presence of His-IN or rSIP1 was added and incubated for 2 h. After four washes with the IN storage buffer, precipitates were analyzed by immunoblot analysis using an anti-GST antibody.
# For preparation of the viral RNA template for in vitro transcription, the DNA sequences corresponding to HIV-1 lentiviral genomic RNA (pCS-CDF-CG-PRE) were subcloned into pGEM-T vector (pGEM-CS-CDF). Then, the annealed oligonucleotides of TCGA(A)30G and TCGA(T)30C were inserted into the pGEM-CS-CDF vector at the Sal-I site for addition of the poly(A) tail (the pGEM-CS-CDF-PolyA). Synthesized HIV RNA with the poly(A) 30 tail were produced by in vitro transcription using RiboMAX™ Large Scale RNA Production System-T7 (Promega) with Ribo m^7 G Cap analog (Promega) to mimic the capped structure of mRNA. Transcription products of HIV-1 RNA (4.9 kb) were purified with spin columns MicroSpin™ G-25 Columns (American Biosciences), followed by gel-filtration using NAP-5 columns, (American Biosciences) and were used in the in vitro RT assay. The reverse transcription reactions were carried out in a final volume of 20 µl RT reaction buffer consisting of 50 mM Tris-HCl (pH 8.3), 75 mM KCl, 3 mM MgCl2, 10 mM DTT, 1 mM dNTPs, 0.04∼0.4 fmoles of HIV-1 RNA templates and 0.4∼4 fmoles of RNA primer, 3.5∼35 fmol HIV-1 RT (GST-RTp66). The reaction was carried out at 42°C for 30 min in either the absence or presence of different amount of His-IN and recombinant SIP1. The amount of the cDNA product was measured by real-time PCR using primers for the R/U5 or R/gag region.
# Supplementary file pone.0007825.s004.pdf: Figure S4 Stoichiometry and order of IN and SIP1 for their stimulatory effect of cDNA synthesis. (A) The in vitro RT assay was carried out in the absence or presence of different amount of the His-IN (0.2 or 1 pmol) or recombinant SIP1 (0.2 or 1 pmol) as described in Figure 4. The amount of cDNA product was measured by real-time PCR using primers for HIV-1 R/U5 region. (B) The in vitro RT assay was carried out with 5 pmoles of His-IN in the absence or presence of different amount SIP1 (1 or 5 pmol). (C) The in vitro RT assay was carried out in the absence or presence of the His-IN and recombinant SIP1 with [α32P]dCTP and subjected to SDS-PAGE analysis in denatured condition. (D) In vitro RT assay was performed as described above, except that rIN with rRT and rSIP1 were pre-incubated on ice in different combinations and orders (inlet Table). Then, reaction was initiated by adding mixture containing the template RNA/PBS-primer and dNTPs. (0.10 MB PDF) Click here for additional data file.
# [13] = system: RT on viral RNA; experiment: RT assembly on viral RNA; format: biochemical; details: HIV-1 RNA on oligo(dT) cellulose, 10 µg GST-RT, 2 h, immunoblot anti-GST (Figure 4E)
# Protocol: as §1
# Next, the effects of IN and SIP1 on the assembly of RT on viral RNA was examined. […] Levels of RT on viral RNA were determined by immunoblot assay. […]
compound,measurement,setting,value
synthetic peptide IN60–80,"HIV-1 infectivity (luciferase activity) in PMA-stimulated THP-1 cells with 100 µM peptide, relative to control; the pair blocked is IN with SIP1",[1],20 % of control and 25 % of control
same,"IC50 of inhibition of the IN-SIP1 mediated RT activity in the in vitro reverse transcription assay (35 fmol RT, 3.5 fmol His-IN, 50 fmol rSIP1); the pair blocked is m2 with m15 (pmoles per reaction)",[2],10
1-250: His-tagged IN deletion form,Binding to rSIP1 in vitro,[3],significantly reduced binding to rSIP1
1-230: His-tagged IN deletion form,Binding to rSIP1 in vitro,[3],significantly restored binding of IN to rSIP1
full-length His-tagged HIV-1 integrase Y15A (enzyme),stoichiometry N,[4],2
CC(C)C[C@@H](C=O)NC(=O)[C@H](CC(C)C)NC(=O)[C@H](CC(C)C)NC(=O)OCc1ccccc1 [MG132] (Cbz-Leu-Leu-Leu-aldehyde),Effect of MG132 on level of WT-V5,[5]; 10 µM MG-132,not changed
same,Effect of MG132 on expression level of IN mutants,"[5]; 10 µM MG-132, Y15A-V5, K186Q-V5 and LL241,242AA-V5",restored the expression levels of the IN mutants
same,Effect of MG132 on level of IN-V5 in siSIP1-treated cells,[5]; siSIP1 treated,restored
1-90: His-tagged IN deletion form,Binding to rSIP1 in vitro,[3],significant binding to rSIP1
IN231–251: synthetic peptide corresponding to the residues of 231–251 of HIV-1 IN,Peptide concentration that reduces His-WT binding to SIP1 to non-specific background levels,"[6]; His-IN (10 µg) on nitrocellulose, 5 µg rSIP1",at least 50 µM
same,Interference with binding of full-length IN (His-WT) to SIP1,"[6]; His-IN (10 µg) on nitrocellulose, 5 µg rSIP1, peptide present",significantly interfered with the binding of the full-length IN (His-WT) to the SIP1 protein
same,Effect on IN-SIP1 interaction and its RT-stimulatory effects,[6]; summary statement,inhibit the IN-SIP1 interaction and its RT-stimulatory effects
same,Direct binding of peptide to rSIP1,[7],efficiently bound to rSIP1
same,"IC50, inhibition of IN-SIP1 mediated RT activity","[8]; 42°C, 30 min, 20 µl, real-time PCR",~1 nmoles per reaction
same,Effect on IN-SIP1 mediated RT activity,[8],significantly reduced the IN-SIP1 mediated RT activity in a dose-dependent manner
same,Effect on HIV-1 infectivity,[9],did not significantly reduce HIV-1 infectivity
1-70: His-tagged IN deletion form,Binding to rSIP1 in vitro,[3],did not bind to rSIP1
"wild type HIV-1 integrase with V5 epitope (IN-V5, WT-V5) (enzyme)",tetramer formation relative to control siRNA treated cells (SIP1 knock-down cells),[10],50%
1-100: His-tagged IN deletion form,Binding to rSIP1 in vitro,[3],significant binding to rSIP1
1-220: His-tagged IN deletion form,Binding to rSIP1 in vitro,[3],significantly restored binding of IN to rSIP1
1-260: His-tagged IN deletion form,Binding to rSIP1 in vitro,[3],significantly reduced binding to rSIP1
1-240: His-tagged IN deletion form,Binding to rSIP1 in vitro,[3],significantly reduced binding to rSIP1
synthetic peptide IN231–251,"IC50 of inhibition of the IN-SIP1 mediated RT activity in the in vitro reverse transcription assay (35 fmol RT, 3.5 fmol His-IN, 50 fmol rSIP1); the pair blocked is m2 with m15 (nmoles per reaction)",[2],1
1-60: His-tagged IN deletion form,Binding to rSIP1 in vitro,[3],did not bind to rSIP1
"1-270: His-tagged IN, the 18 amino acids from the C-terminal deleted",Binding to rSIP1 in vitro,[3],efficient interaction with rSIP1 in vitro
1-80: His-tagged IN deletion form,Binding to rSIP1 in vitro,[3],significant binding to rSIP1
"SIP1: survival motor neuron-interacting protein 1, recombinant",Direct binding to RT,[11],cannot bind to RT directly
same,Effect of SIP1 on RT activity at higher amounts of IN,"[12]; 5 pmoles His-IN, SIP1 1 or 5 pmol (Figure S4B)",not evident; also recorded: could not observed when high amount of IN protein was present
same,Stimulation of RT activity by SIP1 with IN1–70,"[12]; 3.5 fmoles IN1–70, 50 fmoles rSIP1, P = 0.98",no significant
same,Stimulation of RT activity by SIP1 in presence of full-length IN,"[12]; 3.5 fmoles WT-IN, 50 fmoles rSIP1, P = 0.001",Significant stimulation of RT activity
same,Enhancement of IN-stimulated RT activity by SIP1,[12]; WT-IN plus different amounts of rSIP1 (Figure 4C),further enhanced by SIP1 in a dose-dependent manner
same,Effect of pre-incubation order on stimulatory effect,"[12]; pre-incubation of RT and IN before SIP1, on ice (Figure S4D)",most effective stimulatory effect
same,Stimulation of RT activity by SIP1 alone,"[12]; without IN, P = 0.69",no significant
same,Level of RT on viral RNA,[13],enhanced RT assembly on viral RNA
"IN154–174: control peptide, residues of 154–174, contains a motif critical for the interaction with LEDGF/p75 (MNKELKKIIGQVRDQAEHLKT; Integrase; UniProt P04585 1301-1321, looked up, fragment) [reference compound]",Direct binding of peptide to rSIP1,[7],did not
same,Effect on IN-SIP1 mediated RT activity,[8],inhibitory effect was not evident
IN1–70: truncated HIV-1 IN that lacks the central and C-terminal domains,Effect on level of cDNA products (R/U5),"[12]; truncated IN, any dose, 35 fmoles RT, 42°C, 30 min, real-time PCR, P = 0.58∼0.98",no significant stimulatory effect at any dose

# Source: article PMC2771899, “Augmentation of Reverse Transcription by Integrase through an Interaction with Host Factor, SIP1/Gemin2 Is Critical for HIV-1 Infection” (PLoS ONE, 2009)
